# Species on record: Rattus norvegicus
# Assay: Open TG-GATES - Regimen: Daily Repeat
# Assay type: toxicity, organism-based, Sprague-Dawley
# Design: regimen Daily Repeat, gender Male, age 6 weeks
# Settings: in vivo, po, route gavage; for ALP / ALT / AST / BUN / CRE / Ca / Cl / DBIL / GLC / IP / K / LDH / Na / PL / RALB / TBIL / TC / TG / TP / gamma-GTP / A/G: tissue Plasma; for APTT / Bas / Eos / Fbg / Hb / Ht / Lym / MCH / MCHC / MCV / Mono / Neu / PT / Plat / RBC / Ret / WBC: tissue Blood; for KIDNEY_L / KIDNEY_R / KIDNEY_TOTAL: tissue Kidney; for LIVER: tissue Liver
# [1] = 3 mg/kg, […], dose level Low, time 14 day
# [2] = 3 mg/kg, […], dose level Low, time 28 day
# [3] = 10 mg/kg, 72 h, dose level Middle, time 3 day
# [4] = 10 mg/kg, […], dose level Middle, time 7 day
# [5] = 10 mg/kg, […], dose level Middle, time 14 day
# [6] = 10 mg/kg, […], dose level Middle, time 28 day
# [7] = 30 mg/kg, 72 h, dose level High, time 3 day
# [8] = 30 mg/kg, […], dose level High, time 7 day
# [9] = 30 mg/kg, […], dose level High, time 14 day
smiles,measurement,setting,value
C[C@H]1C(=O)O[C@@H]2CCN3CC=C(COC(=O)[C@](C)(O)[C@]1(C)O)[C@H]23 [MONOCROTALINE],ALP,[1],1435.6 IU/L
same,ALT,[1],41.4 IU/L
same,AST,[1],76.6 IU/L
same,BUN,[1],16.4 mg/dL
same,CRE,[1],0.2 mg/dL
same,Ca,[1],11 mg/dL
same,Cl,[1],106.4 meq/L
same,DBIL,[1],0 mg/dL
same,GLC,[1],185.4 mg/dL
same,IP,[1],6.2 mg/dL
same,K,[1],4 meq/L
same,LDH,[1],269.8 IU/L
same,Na,[1],142.4 meq/L
same,PL,[1],161.6 mg/dL
same,RALB,[1],3 g/dL
same,TBIL,[1],0 mg/dL
same,TC,[1],92.2 mg/dL
same,TG,[1],97 mg/dL
same,TP,[1],5.9 g/dL
same,gamma-GTP,[1],2.2 IU/L
same,A/G,[2],1.1
same,ALP,[2],1124.2 IU/L
same,ALT,[2],41.8 IU/L
same,AST,[2],87.4 IU/L
same,BUN,[2],19 mg/dL
same,CRE,[2],0.2 mg/dL
same,Ca,[2],10.7 mg/dL
same,Cl,[2],108.4 meq/L
same,DBIL,[2],0 mg/dL
same,GLC,[2],182.2 mg/dL
same,IP,[2],6 mg/dL
same,K,[2],4.3 meq/L
same,LDH,[2],290.2 IU/L
same,Na,[2],143.2 meq/L
same,PL,[2],158.8 mg/dL
same,RALB,[2],3.2 g/dL
same,TBIL,[2],0.034 mg/dL
same,TC,[2],81.2 mg/dL
same,TG,[2],128.2 mg/dL
same,TP,[2],6.1 g/dL
same,gamma-GTP,[2],1.2 IU/L
same,TERMINAL_BW,[3],231.2 g
same,APTT,[3],19.4 s
same,Bas,[3],0%
same,Eos,[3],0.8%
same,Fbg,[3],324.6 mg/dL
same,Hb,[3],13.8 g/dL
same,Ht,[3],40.1%
same,Lym,[3],78.2%
same,MCH,[3],21.5 pg
same,MCHC,[3],34.5%
same,MCV,[3],62.2 fL
same,Mono,[3],2.8%
same,Neu,[3],17.6%
same,PT,[3],15.9 s
same,Plat,[3],126.9 x10_4/uL
same,RBC,[3],646.6 x10_4/ul
same,Ret,[3],6%
same,WBC,[3],73.2 x10_2/uL
same,KIDNEY_L,[3],1 g
same,KIDNEY_R,[3],1 g
same,KIDNEY_TOTAL,[3],2 g
same,LIVER,[3],10.7 g
same,A/G,[3],1.3
same,ALP,[3],1897.2 IU/L
same,ALT,[3],40.8 IU/L
same,AST,[3],73.6 IU/L
same,BUN,[3],16.2 mg/dL
same,CRE,[3],0.2 mg/dL
same,Ca,[3],10.9 mg/dL
same,Cl,[3],106.4 meq/L
same,DBIL,[3],0.002 mg/dL
same,GLC,[3],184.4 mg/dL
same,IP,[3],7.2 mg/dL
same,K,[3],4.6 meq/L
same,LDH,[3],283 IU/L
same,Na,[3],142 meq/L
same,PL,[3],167.2 mg/dL
same,RALB,[3],3.1 g/dL
same,TBIL,[3],0.01 mg/dL
same,TC,[3],90.4 mg/dL
same,TG,[3],113.6 mg/dL
same,TP,[3],5.5 g/dL
same,gamma-GTP,[3],1 IU/L
same,TERMINAL_BW,[4],249.4 g
same,TERMINAL_BW,[5],274.8 g
same,TERMINAL_BW,[6],321 g
same,APTT,[4],21.5 s
same,Bas,[4],0%
same,Eos,[4],1%
same,Fbg,[4],391.6 mg/dL
same,Hb,[4],13.9 g/dL
same,Ht,[4],39.4%
same,Lym,[4],78.8%
same,MCH,[4],20.7 pg
same,MCHC,[4],35.1%
same,MCV,[4],58.8 fL
same,Mono,[4],4.2%
same,Neu,[4],14.8%
same,PT,[4],16.4 s
same,Plat,[4],134.7 x10_4/uL
same,RBC,[4],670.6 x10_4/ul
same,Ret,[4],4.5%
same,WBC,[4],135.7 x10_2/uL
same,APTT,[5],21.2 s
same,Bas,[5],0%
same,Eos,[5],0.2%
same,Fbg,[5],480 mg/dL
same,Hb,[5],14.4 g/dL
same,Ht,[5],41.1%
same,Lym,[5],84.2%
same,MCH,[5],20.5 pg
same,MCHC,[5],35.2%
same,MCV,[5],58.2 fL
same,Mono,[5],4.8%
same,Neu,[5],9.6%
same,PT,[5],16.4 s
same,Plat,[5],136.8 x10_4/uL
same,RBC,[5],705.4 x10_4/ul
same,Ret,[5],2.9%
same,WBC,[5],250.8 x10_2/uL
same,APTT,[6],26.9 s
same,Bas,[6],0%
same,Eos,[6],1%
same,Fbg,[6],293.8 mg/dL
same,Hb,[6],15.3 g/dL
same,Ht,[6],43.1%
same,Lym,[6],76.4%
same,MCH,[6],18.8 pg
same,MCHC,[6],35.6%
same,MCV,[6],52.7 fL
same,Mono,[6],4.6%
same,Neu,[6],17%
same,PT,[6],16.1 s
same,Plat,[6],84.1 x10_4/uL
same,RBC,[6],818 x10_4/ul
same,Ret,[6],4.5%
same,WBC,[6],308 x10_2/uL
same,KIDNEY_L,[4],1.1 g
same,KIDNEY_R,[4],1.1 g
same,KIDNEY_TOTAL,[4],2.2 g
same,KIDNEY_L,[5],1.1 g
same,KIDNEY_R,[5],1.2 g
same,KIDNEY_TOTAL,[5],2.3 g
same,KIDNEY_L,[6],1.3 g
same,KIDNEY_R,[6],1.3 g
same,KIDNEY_TOTAL,[6],2.6 g
same,LIVER,[4],11.6 g
same,LIVER,[5],13.3 g
same,LIVER,[6],15 g
same,A/G,[4],1.1
same,ALP,[4],1684.4 IU/L
same,ALT,[4],46.6 IU/L
same,AST,[4],87.8 IU/L
same,BUN,[4],15.4 mg/dL
same,CRE,[4],0.1 mg/dL
same,Ca,[4],11 mg/dL
same,Cl,[4],107.4 meq/L
same,DBIL,[4],0.002 mg/dL
same,GLC,[4],181.2 mg/dL
same,IP,[4],6.6 mg/dL
same,K,[4],4.3 meq/L
same,LDH,[4],236 IU/L
same,Na,[4],142 meq/L
same,PL,[4],149 mg/dL
same,RALB,[4],3 g/dL
same,TBIL,[4],0.006 mg/dL
same,TC,[4],82 mg/dL
same,TG,[4],111 mg/dL
same,TP,[4],5.7 g/dL
same,gamma-GTP,[4],1.8 IU/L
same,A/G,[5],0.8
same,ALP,[5],2092 IU/L
same,ALT,[5],88.8 IU/L
same,AST,[5],174.4 IU/L
same,BUN,[5],17.2 mg/dL
same,CRE,[5],0.3 mg/dL
same,Ca,[5],11.2 mg/dL
same,Cl,[5],106.6 meq/L
same,DBIL,[5],0.006 mg/dL
same,GLC,[5],171 mg/dL
same,IP,[5],5.9 mg/dL
same,K,[5],4.8 meq/L
same,LDH,[5],454.8 IU/L
same,Na,[5],141 meq/L
same,PL,[5],139 mg/dL
same,RALB,[5],2.6 g/dL
same,TBIL,[5],0.008 mg/dL
same,TC,[5],71.6 mg/dL
same,TG,[5],103.2 mg/dL
same,TP,[5],5.8 g/dL
same,gamma-GTP,[5],2.4 IU/L
same,A/G,[6],0.9
same,ALP,[6],1353.2 IU/L
same,ALT,[6],82.8 IU/L
same,AST,[6],155 IU/L
same,BUN,[6],17.4 mg/dL
same,CRE,[6],0.2 mg/dL
same,Ca,[6],11 mg/dL
same,Cl,[6],107.8 meq/L
same,DBIL,[6],0.078 mg/dL
same,GLC,[6],167.6 mg/dL
same,IP,[6],6 mg/dL
same,K,[6],4.5 meq/L
same,LDH,[6],382.8 IU/L
same,Na,[6],141.4 meq/L
same,PL,[6],140 mg/dL
same,RALB,[6],2.9 g/dL
same,TBIL,[6],0.1 mg/dL
same,TC,[6],79.6 mg/dL
same,TG,[6],47.2 mg/dL
same,TP,[6],6 g/dL
same,gamma-GTP,[6],1.6 IU/L
same,TERMINAL_BW,[7],232.9 g
same,APTT,[7],17.3 s
same,Bas,[7],0%
same,Eos,[7],0.8%
same,Fbg,[7],350.2 mg/dL
same,Hb,[7],13.8 g/dL
same,Ht,[7],39.9%
same,Lym,[7],73.6%
same,MCH,[7],21.4 pg
same,MCHC,[7],34.5%
same,MCV,[7],62.1 fL
same,Mono,[7],4.4%
same,Neu,[7],19.8%
same,PT,[7],16.2 s
same,Plat,[7],124.3 x10_4/uL
same,RBC,[7],643.2 x10_4/ul
same,Ret,[7],4.8%
same,WBC,[7],80.8 x10_2/uL
same,KIDNEY_L,[7],1 g
same,KIDNEY_R,[7],1 g
same,KIDNEY_TOTAL,[7],2.1 g
same,LIVER,[7],12.5 g
same,A/G,[7],1.3
same,ALP,[7],1831.6 IU/L
same,ALT,[7],47.2 IU/L
same,AST,[7],112.4 IU/L
same,BUN,[7],13.6 mg/dL
same,CRE,[7],0.1 mg/dL
same,Ca,[7],11.1 mg/dL
same,Cl,[7],106.4 meq/L
same,DBIL,[7],0.01 mg/dL
same,GLC,[7],180.2 mg/dL
same,IP,[7],7 mg/dL
same,K,[7],4.5 meq/L
same,LDH,[7],398 IU/L
same,Na,[7],141.2 meq/L
same,PL,[7],161.4 mg/dL
same,RALB,[7],3.2 g/dL
same,TBIL,[7],0.028 mg/dL
same,TC,[7],88.4 mg/dL
same,TG,[7],100 mg/dL
same,TP,[7],5.7 g/dL
same,gamma-GTP,[7],1.2 IU/L
same,TERMINAL_BW,[8],230.5 g
same,APTT,[8],24.3 s
same,Bas,[8],0%
same,Eos,[8],0.4%
same,Fbg,[8],451.4 mg/dL
same,Hb,[8],14.1 g/dL
same,Ht,[8],40.7%
same,Lym,[8],71.6%
same,MCH,[8],20.2 pg
same,MCHC,[8],34.6%
same,MCV,[8],58.3 fL
same,Mono,[8],4.8%
same,Neu,[8],18.6%
same,PT,[8],17.5 s
same,Plat,[8],44 x10_4/uL
same,RBC,[8],697.8 x10_4/ul
same,Ret,[8],2.9%
same,WBC,[8],122 x10_2/uL
same,Mono,[9],7%
same,KIDNEY_L,[8],1.1 g
same,KIDNEY_R,[8],1.1 g
same,KIDNEY_TOTAL,[8],2.2 g
same,LIVER,[8],11.3 g
same,A/G,[8],1
same,ALP,[8],1889.2 IU/L
same,ALT,[8],273.2 IU/L
same,AST,[8],504.2 IU/L
same,BUN,[8],13 mg/dL
same,CRE,[8],0.2 mg/dL
same,Ca,[8],10.8 mg/dL
same,Cl,[8],106 meq/L
same,DBIL,[8],0.2 mg/dL
same,GLC,[8],156 mg/dL
same,IP,[8],6.9 mg/dL
same,K,[8],4.4 meq/L
same,LDH,[8],749.6 IU/L
same,Na,[8],141 meq/L
same,PL,[8],139.8 mg/dL
same,RALB,[8],2.6 g/dL
same,TBIL,[8],0.3 mg/dL
same,TC,[8],86.4 mg/dL
same,TG,[8],38.8 mg/dL
same,TP,[8],5.3 g/dL
same,gamma-GTP,[8],2.2 IU/L
same,BUN,[9],13.5 mg/dL
same,CRE,[9],0.2 mg/dL
same,TP,[9],4.9 g/dL
